The text below walks through data of ChEMBL document CHEMBL4387741, “Optimization of novel reversible Bruton's tyrosine kinase inhibitors identified using Tethering-fragment-based screens” (Bioorg Med Chem, 2019).

Data set [1] concerns the target Serine/threonine-protein kinase haspin (Homo sapiens) (UniProt Q8TF76). Nature of the data set: Inhibition of wild-type human partial length HASPIN (I452 to K798 residues) expressed in mammalian expression system at 10 uM by Kinomescan method relative to control.
In data set [2] the target is Proto-oncogene tyrosine-protein kinase ROS (Homo sapiens) (UniProt P08922). The data set can be described thus: Inhibition of wild-type human partial length ROS1 (A1921 to N2240 residues) expressed in bacterial expression system at 10 uM by Kinomescan method relative to control.
For data set [3], the system named is Epidermal growth factor receptor (Homo sapiens), P00533 [G719S]. The data set can be described thus: Inhibition of human partial length EGFR G719S mutant (R669 to V1011 residues) expressed in bacterial expression system at 10 uM by Kinomescan method relative to control.
Data set [4] deals with Tyrosine-protein kinase Lck (Homo sapiens) (UniProt P06239). The data set can be described thus: Inhibition of wild-type human partial length LCK (R207 to P509 residues) expressed in bacterial expression system at 10 uM by Kinomescan method relative to control.
In data set [5] the target is Serine/threonine-protein kinase LATS2 (Homo sapiens) (UniProt Q9NRM7). The data set can be described thus: Inhibition of wild-type human partial length LATS2 (Q641 to V1088 residues) expressed in mammalian expression system at 10 uM by Kinomescan method relative to control.
The target in data set [6] is Macrophage-stimulating protein receptor (Homo sapiens) (UniProt Q04912). Nature of the data set: Inhibition of wild-type human partial length MST1R (I1057 to L1363 residues) expressed in bacterial expression system at 10 uM by Kinomescan method relative to control.
Data set [7] concerns the target Mitogen-activated protein kinase kinase kinase 11 (Homo sapiens) (UniProt Q16584). The data set can be described thus: Inhibition of wild-type human partial length MLK3 (I77 to W399 residues) expressed in bacterial expression system at 10 uM by Kinomescan method relative to control.
Data set [8] has as its system Tyrosine-protein kinase ABL1 (Homo sapiens), P00519 [F317L]. The data set can be described thus: Inhibition of human phosphorylated ABL1 F317L mutant (S229 to K512 residues) expressed in mammalian expression system at 10 uM by Kinomescan method relative to control.
Data set [9] concerns the target Cyclin-dependent kinase 9 (Homo sapiens) (UniProt P50750). Nature of the data set: Inhibition of wild-type human full length CDK9 (M1 to F372 residues) expressed in bacterial expression system at 10 uM by Kinomescan method relative to control.
In data set [10] the target is Cyclin-dependent kinase-like 5 (Homo sapiens) (UniProt O76039). The data set can be described thus: Inhibition of wild-type human partial length CDKL5 (M1 to S337 residues) expressed in mammalian expression system at 10 uM by Kinomescan method relative to control.
Data set [11] deals with Phosphatidylinositol 4,5-bisphosphate 3-kinase catalytic subunit alpha isoform (Homo sapiens), P42336 [Q546K]. Nature of the data set: Inhibition of human partial length PIK3CA Q546K mutant (R108 to N1068 residues) expressed in mammalian expression system at 10 uM by Kinomescan method relative to control.
For data set [12], the target named is Ribosomal protein S6 kinase alpha-3 (Homo sapiens) (UniProt P51812). Nature of the data set: Inhibition of wild-type human partial length N-terminal RSK2 kinase domain 1 (M1 to D394 residues) expressed in mammalian expression system at 10 uM by Kinomescan method relative to control.
The target of data set [13] is Serine/threonine-protein kinase SIK1 (Homo sapiens) (UniProt P57059). The data set can be described thus: Inhibition of wild-type human partial length SIK (M1 to Y304 residues) expressed in bacterial expression system at 1 uM by Kinomescan method relative to control.
Data set [14] deals with Focal adhesion kinase 1 (Homo sapiens) (UniProt Q05397). The data set can be described thus: Inhibition of wild-type human partial length FAK (D402 to R696 residues) expressed in bacterial expression system at 1 uM by Kinomescan method relative to control.
In data set [15] the target is Interferon-induced, double-stranded RNA-activated protein kinase (Homo sapiens) (UniProt P19525). The data set can be described thus: Inhibition of wild-type human partial length PRKR (F247 to C551 residues) expressed in bacterial expression system at 1 uM by Kinomescan method relative to control.
In data set [16] the target is RAC-gamma serine/threonine-protein kinase (Homo sapiens) (UniProt Q9Y243). Nature of the data set: Inhibition of wild-type human partial length AKT3 expressed in bacterial expression system at 1 uM by Kinomescan method relative to control.
Data set [17] concerns the target Serine/threonine-protein kinase PLK2 (Homo sapiens) (UniProt Q9NYY3). Nature of the data set: Inhibition of wild-type human partial length PLK2 (H58 to F354 residues) expressed in mammalian expression system at 1 uM by Kinomescan method relative to control.
Data set [18] has as its system eIF-2-alpha kinase GCN2 (Homo sapiens), Q9P2K8 [S808G]. The data set can be described thus: Inhibition of wild-type human partial length GCN2 kinase domain 2 (R585 to T1018 residues) S808G mutant expressed in bacterial expression system at 1 uM by Kinomescan method relative to control.
Data set [19] has as its target Ribosomal protein S6 kinase alpha-3 (Homo sapiens) (UniProt P51812). The data set can be described thus: Inhibition of wild-type human partial length N-terminal RSK2 kinase domain 1 (M1 to D394 residues) expressed in mammalian expression system at 1 uM by Kinomescan method relative to control.
For data set [20], the system named is Epidermal growth factor receptor (Homo sapiens), P00533 [T790M]. Nature of the data set: Inhibition of human partial length EGFR T790M mutant (R669 to G1022 residues) expressed in mammalian expression system at 1 uM by Kinomescan method relative to control.
Data set [21] concerns the target Tyrosine-protein kinase CSK (Homo sapiens) (UniProt P41240). Nature of the data set: Inhibition of wild-type human full length CSK (M1 to L450 residues) expressed in bacterial expression system at 1 uM by Kinomescan method relative to control.
The target in data set [22] is Mitogen-activated protein kinase 4 (Homo sapiens) (UniProt P31152). The data set can be described thus: Inhibition of wild-type human partial length ERK4 (M1 to L365 residues) expressed in bacterial expression system at 1 uM by Kinomescan method relative to control.
Data set [23] has as its target High affinity nerve growth factor receptor (Homo sapiens) (UniProt P04629). The data set can be described thus: Inhibition of wild-type human partial length TRKA (G475 to G790 residues) expressed in mammalian expression system at 1 uM by Kinomescan method relative to control.
For data set [24], the target named is TGF-beta receptor type-1 (Homo sapiens) (UniProt P36897). Nature of the data set: Inhibition of wild-type human partial length TGFBR1 (D179 to M503 residues) expressed in bacterial expression system at 1 uM by Kinomescan method relative to control.
A short description of data set [25]: Protein binding in rat plasma assessed as unbound fraction at 2 uM by rapid equilibrium dialysis method. It counts as ADME, cell-free. A general note: Equilibrium dialysis compares concentrations on both sides of a semipermeable membrane.
Data set [26] addresses Ribosomal protein S6 kinase alpha-6 (Homo sapiens) (UniProt Q9UK32). The data set can be described thus: Inhibition of wild-type human partial length N-terminal RSK4 kinase domain 1 (M1 to E397 residues) expressed in mammalian expression system at 1 uM by Kinomescan method relative to control.
For data set [27], the target named is STE20/SPS1-related proline-alanine-rich protein kinase (Homo sapiens) (UniProt Q9UEW8). Nature of the data set: Inhibition of wild-type human partial length STK39 (P43 to I357 residues) expressed in mammalian expression system at 1 uM by Kinomescan method relative to control.

Ribosomal protein S6 kinase alpha-3 (Homo sapiens), sequence (P51812 whole entry, the tested form may be a part): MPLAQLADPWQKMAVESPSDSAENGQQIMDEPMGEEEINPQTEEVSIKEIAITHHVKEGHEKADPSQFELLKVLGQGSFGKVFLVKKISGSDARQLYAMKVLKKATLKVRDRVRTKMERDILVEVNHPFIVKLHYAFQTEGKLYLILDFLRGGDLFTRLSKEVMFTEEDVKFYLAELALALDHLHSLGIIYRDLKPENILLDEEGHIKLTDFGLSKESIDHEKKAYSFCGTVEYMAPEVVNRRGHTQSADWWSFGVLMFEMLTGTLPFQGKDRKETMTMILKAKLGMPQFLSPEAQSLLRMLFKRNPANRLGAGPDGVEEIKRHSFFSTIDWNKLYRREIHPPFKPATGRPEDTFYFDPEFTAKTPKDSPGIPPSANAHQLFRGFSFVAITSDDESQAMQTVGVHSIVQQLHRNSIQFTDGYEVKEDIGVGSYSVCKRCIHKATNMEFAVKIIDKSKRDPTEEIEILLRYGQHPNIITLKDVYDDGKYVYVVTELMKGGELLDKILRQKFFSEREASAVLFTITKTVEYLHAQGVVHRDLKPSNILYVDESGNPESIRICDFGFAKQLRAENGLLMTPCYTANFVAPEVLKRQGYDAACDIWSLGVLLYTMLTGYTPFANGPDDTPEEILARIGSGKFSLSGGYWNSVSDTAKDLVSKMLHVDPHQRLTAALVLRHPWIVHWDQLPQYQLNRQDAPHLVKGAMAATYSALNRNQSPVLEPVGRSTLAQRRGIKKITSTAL
Focal adhesion kinase 1 (Homo sapiens), sequence (Q05397 2-1052 limits assumed): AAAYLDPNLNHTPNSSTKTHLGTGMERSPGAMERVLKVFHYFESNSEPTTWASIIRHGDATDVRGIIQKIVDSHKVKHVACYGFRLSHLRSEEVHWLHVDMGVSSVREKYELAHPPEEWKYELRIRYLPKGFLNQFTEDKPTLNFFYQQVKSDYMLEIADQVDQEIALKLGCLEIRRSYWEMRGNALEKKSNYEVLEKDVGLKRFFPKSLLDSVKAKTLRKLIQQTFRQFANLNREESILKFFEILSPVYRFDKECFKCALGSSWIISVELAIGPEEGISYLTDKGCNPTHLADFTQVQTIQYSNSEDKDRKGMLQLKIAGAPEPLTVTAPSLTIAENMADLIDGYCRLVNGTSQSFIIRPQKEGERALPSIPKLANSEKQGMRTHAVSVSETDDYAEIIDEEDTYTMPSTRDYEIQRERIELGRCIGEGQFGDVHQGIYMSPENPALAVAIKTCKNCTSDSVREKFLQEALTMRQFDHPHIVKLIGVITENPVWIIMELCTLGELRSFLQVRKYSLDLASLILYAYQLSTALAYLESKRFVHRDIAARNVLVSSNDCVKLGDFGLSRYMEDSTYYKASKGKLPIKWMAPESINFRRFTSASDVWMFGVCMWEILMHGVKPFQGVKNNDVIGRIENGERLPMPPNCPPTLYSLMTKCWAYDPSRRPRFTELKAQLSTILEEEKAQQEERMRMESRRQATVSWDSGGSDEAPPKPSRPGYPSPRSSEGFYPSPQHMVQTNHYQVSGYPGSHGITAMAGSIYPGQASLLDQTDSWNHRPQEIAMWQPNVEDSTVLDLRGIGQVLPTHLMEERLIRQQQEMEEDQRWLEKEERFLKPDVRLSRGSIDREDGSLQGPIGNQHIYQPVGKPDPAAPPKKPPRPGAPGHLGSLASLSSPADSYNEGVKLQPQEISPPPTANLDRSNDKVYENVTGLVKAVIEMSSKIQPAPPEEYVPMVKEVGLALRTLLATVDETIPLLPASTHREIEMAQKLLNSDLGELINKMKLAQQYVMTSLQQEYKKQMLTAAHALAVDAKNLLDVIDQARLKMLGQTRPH
TGF-beta receptor type-1 (Homo sapiens), sequence (P36897 whole entry, the tested form may be a part): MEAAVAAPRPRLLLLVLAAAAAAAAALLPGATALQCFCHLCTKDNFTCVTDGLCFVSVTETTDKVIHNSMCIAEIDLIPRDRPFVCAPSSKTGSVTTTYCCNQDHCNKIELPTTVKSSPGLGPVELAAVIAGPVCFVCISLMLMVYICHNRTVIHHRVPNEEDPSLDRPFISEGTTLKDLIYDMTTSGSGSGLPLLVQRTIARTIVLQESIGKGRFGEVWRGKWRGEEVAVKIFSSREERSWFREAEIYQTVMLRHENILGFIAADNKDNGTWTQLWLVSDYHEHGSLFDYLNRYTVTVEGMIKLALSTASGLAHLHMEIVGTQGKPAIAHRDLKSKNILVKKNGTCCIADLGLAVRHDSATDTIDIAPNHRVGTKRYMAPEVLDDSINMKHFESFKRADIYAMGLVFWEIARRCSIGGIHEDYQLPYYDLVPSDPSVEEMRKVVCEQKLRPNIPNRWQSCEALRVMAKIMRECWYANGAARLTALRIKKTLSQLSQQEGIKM
Cyclin-dependent kinase 9 (Homo sapiens), sequence (P50750 whole entry, the tested form may be a part): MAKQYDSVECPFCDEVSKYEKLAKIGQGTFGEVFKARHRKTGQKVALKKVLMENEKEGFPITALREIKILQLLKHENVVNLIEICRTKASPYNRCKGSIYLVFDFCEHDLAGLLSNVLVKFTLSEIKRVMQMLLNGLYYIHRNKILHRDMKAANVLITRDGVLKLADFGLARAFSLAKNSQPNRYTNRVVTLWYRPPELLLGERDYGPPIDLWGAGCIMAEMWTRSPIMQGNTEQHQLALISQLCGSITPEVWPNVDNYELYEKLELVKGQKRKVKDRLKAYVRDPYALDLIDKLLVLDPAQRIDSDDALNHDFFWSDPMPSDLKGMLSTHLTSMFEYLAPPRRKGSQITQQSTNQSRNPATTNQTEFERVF
Ribosomal protein S6 kinase alpha-6 (Homo sapiens), sequence (Q9UK32 whole entry, the tested form may be a part): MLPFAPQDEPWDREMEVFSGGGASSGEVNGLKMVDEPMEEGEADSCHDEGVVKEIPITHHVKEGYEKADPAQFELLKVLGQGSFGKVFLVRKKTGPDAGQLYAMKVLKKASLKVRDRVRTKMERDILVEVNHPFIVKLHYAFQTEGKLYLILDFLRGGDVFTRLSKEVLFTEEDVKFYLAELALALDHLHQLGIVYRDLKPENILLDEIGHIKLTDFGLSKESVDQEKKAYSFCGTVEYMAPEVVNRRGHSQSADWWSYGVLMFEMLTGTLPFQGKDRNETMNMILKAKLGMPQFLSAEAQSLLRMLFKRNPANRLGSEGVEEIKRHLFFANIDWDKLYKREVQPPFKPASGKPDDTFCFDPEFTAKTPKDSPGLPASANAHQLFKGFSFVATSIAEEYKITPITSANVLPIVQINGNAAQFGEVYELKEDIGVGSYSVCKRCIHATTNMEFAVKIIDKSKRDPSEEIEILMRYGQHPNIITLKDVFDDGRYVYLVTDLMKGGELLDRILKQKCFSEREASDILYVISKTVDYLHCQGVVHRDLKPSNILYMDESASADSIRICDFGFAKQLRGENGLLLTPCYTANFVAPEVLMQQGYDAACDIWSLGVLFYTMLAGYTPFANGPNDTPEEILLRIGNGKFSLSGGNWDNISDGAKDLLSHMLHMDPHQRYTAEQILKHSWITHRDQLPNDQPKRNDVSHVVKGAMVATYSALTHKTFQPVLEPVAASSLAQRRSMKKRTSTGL
Mitogen-activated protein kinase 4 (Homo sapiens), sequence (P31152 whole entry, the tested form may be a part): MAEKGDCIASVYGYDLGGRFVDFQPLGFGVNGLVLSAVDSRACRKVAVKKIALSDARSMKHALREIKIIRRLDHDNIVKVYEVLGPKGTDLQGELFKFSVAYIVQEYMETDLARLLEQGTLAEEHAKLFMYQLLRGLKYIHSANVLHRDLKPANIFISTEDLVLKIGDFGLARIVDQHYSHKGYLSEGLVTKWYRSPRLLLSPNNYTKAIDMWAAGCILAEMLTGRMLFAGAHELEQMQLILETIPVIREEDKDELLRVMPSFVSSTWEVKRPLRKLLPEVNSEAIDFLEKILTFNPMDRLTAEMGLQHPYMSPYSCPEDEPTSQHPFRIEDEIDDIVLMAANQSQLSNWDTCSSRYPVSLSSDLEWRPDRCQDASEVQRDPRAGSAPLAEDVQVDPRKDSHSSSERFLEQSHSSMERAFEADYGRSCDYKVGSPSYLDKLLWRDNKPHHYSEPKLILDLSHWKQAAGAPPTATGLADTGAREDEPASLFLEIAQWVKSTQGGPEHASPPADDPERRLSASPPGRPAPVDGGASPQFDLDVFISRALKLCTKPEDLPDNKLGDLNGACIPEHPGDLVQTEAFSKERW
Serine/threonine-protein kinase SIK1 (Homo sapiens), sequence (P57059 whole entry, the tested form may be a part): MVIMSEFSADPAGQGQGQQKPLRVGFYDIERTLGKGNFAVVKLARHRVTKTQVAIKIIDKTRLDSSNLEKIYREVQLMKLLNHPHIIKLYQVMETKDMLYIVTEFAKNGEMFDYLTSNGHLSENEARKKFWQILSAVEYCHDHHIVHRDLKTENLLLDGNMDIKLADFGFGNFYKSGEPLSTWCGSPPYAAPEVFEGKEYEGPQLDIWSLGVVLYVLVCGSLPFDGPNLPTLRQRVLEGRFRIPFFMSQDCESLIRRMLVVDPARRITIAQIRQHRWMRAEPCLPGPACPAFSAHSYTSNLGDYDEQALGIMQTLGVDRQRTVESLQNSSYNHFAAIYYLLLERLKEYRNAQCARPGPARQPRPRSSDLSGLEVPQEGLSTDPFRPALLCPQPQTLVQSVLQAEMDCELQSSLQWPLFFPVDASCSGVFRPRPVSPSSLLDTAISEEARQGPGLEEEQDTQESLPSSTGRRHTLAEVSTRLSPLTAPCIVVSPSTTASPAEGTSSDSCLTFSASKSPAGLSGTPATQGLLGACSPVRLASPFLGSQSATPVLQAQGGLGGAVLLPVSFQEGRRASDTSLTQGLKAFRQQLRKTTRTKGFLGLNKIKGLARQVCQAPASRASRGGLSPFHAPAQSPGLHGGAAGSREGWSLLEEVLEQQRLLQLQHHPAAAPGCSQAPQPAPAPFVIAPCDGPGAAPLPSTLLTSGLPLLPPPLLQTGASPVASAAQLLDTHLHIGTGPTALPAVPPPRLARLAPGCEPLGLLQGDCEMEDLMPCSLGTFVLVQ

The term inhibition denotes how much of the control response was suppressed. Lower therefore signals little suppression. Turning to `O=C(Nc1cccc([C@H]2CCCN(c3ncnc4[nH]ccc34)C2)c1)Nc1ccccc1N1CCCC1`, the inhibition was found to be 63% in [1]; 72% in [2]; 81% in [3]; 48% in data set [4]; 14% in data set [5]; 100% in data set [6]. The inhibition worked out at 85% in [7]; 87% in data set [8]; 100% in [9]; 96% in [10]; 81% in [11]; 57% in data set [12].

As for `O=C(Nc1cccc([C@@H]2CN(c3ncnc4[nH]ccc34)CCN2CCO)c1)Nc1c(F)cccc1N1CCCC1`, the inhibition turned out to be 55% in data set [13]; 90% in [14]; 100% in data set [15]; 100% in data set [16]; 87% in data set [17]; 95% in data set [18]. Besides, the inhibition in [19] was 94%; in data set [20] it was 96%; in [21] it was 65%; in data set [22], 100%; in data set [23] it was 56%; in [24] it was 71%. In addition, the inhibition in [26] stood at 89%; in [27], 75%. Besides, in [25], the Fu was determined as 0.13%.
